Data reported in US11905279B1, “Benzylidene derivatives of fenobam as anti-inflammatory agents” (KING FAISAL UNIVERSITY, priority 2023, dated 2024).

How the values were obtained:
human COX-1 = target: T1, human COX-1 (Homo sapiens, UniProt P23219); test: Cyclooxygenase (COX-1) enzyme inhibition assay, COX (human) Inhibitor Screening Assay Kit; type: biochemical; conditions: compound at 10 μM; in vitro, human COX-1 isoenzyme; ELISA incubation 18 hours; read-out: % Inhibition( COX1) Mean ± SEM
T1 construct: purchased
T1 sequence (P23219 24-599): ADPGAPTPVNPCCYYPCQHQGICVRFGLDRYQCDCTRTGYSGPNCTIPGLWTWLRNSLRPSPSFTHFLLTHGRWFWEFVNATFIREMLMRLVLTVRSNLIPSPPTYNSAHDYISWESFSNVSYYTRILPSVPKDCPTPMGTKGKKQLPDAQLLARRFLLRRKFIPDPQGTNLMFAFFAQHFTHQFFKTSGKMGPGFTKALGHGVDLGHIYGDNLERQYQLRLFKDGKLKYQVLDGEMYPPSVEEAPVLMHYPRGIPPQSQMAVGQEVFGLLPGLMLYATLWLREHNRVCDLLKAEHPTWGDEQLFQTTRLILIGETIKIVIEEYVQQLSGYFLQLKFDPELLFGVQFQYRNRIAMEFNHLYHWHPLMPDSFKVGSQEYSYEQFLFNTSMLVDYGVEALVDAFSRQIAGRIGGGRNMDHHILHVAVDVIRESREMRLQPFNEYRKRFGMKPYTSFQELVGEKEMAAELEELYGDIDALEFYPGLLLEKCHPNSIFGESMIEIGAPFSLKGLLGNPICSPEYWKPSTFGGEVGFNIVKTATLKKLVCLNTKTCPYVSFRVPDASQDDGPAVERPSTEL
Experimental: (§1) According to manufacturer instructions, a COX inhibition assay was performed using COX (human) Inhibitor Screening Assay Kit for the compounds 5c, 5d, 5h, 5k, 5l, 5m, and 6d. All reagents and buffers were prepared in ultrapure water. All stock solutions of the compounds and the positive controls (Indomethacin and Celecoxib) were dissolved in DMSO. In each inhibitor sample tube, 160 μL reaction buffer, 10 μL of heme, 10 μL of diluted COX-1 or COX-2 enzyme, and 10 μL of the diluted inhibitor was added to get a final concentration of 100 μM. […] 10 μL of the vehicle control (DMSO) was added to the background tubes, and COX enzyme's 100% initial activity was obtained. All reaction tubes were incubated for 10 minutes at 37° C. Following this incubation, 10 μL of the substrate, arachidonic acid (AA), was added to all test tubes, mixed, and further incubated for precisely 30 seconds at 37° C. Then, 30 μL of SnCl2 solution was added to each reaction tube to stop the enzyme catalysis. All reaction tubes were removed from the incubator, vortexed, and incubated again for 5 min at room temperature. Reaction tubes were stored at 4° C. to quantify the prostaglandin formation by competitive enzyme-linked immunosorbent assay (ELISA). ELISA standards were prepared in test tubes to perform the competitive ELISA, and dilutions were prepared with the ELISA buffer. The standards, COX reaction dilutions, and background samples were serially diluted. After that, 50 μL of the diluted standards, COX background, COX 100% initial activity, and COX inhibitor samples were transferred to the corresponding wells of 96 well ELISA plate. Blank (to assess the background absorbance caused by Ellman's reagent) and total activity (TA) (to determine the enzymatic activity of the AChE-linked tracer) wells were left empty, 100 μL and 50 μL of the ELISA buffer were added to the nonspecific binding (NSB) and maximum binding (BO), respectively. Prostaglandin screening AChE tracer (50 μL) and prostaglandin screening ELISA antiserum (50 μL) were added to corresponding wells except for TA. The plate was covered with a plastic film, wrapped with foil to protect from light, and incubated for 18 hours at room temperature. Following incubation, the plate was washed and developed with 200 μL of Ellman's reagent to all wells, and 5 μL of tracer was added to TA well. The plate was covered with foil, placed on an orbital shaker, and incubated for 60-90 minutes. Finally, the plate reading was done at a wavelength of 405 nm with a Microplate reader from BioTek (by Agilent), and data were collected using Gen5™ (by Agilent) analysis software.
(§2) In vitro catalytic inhibition data of compounds 5c, 5d, 5h, 5k, 5l, 5m, and 6d at 10 μM against human COX-1 and COX-2 isoenzymes is listed in Table 1.

human COX-2 = target: T2, human COX-2 (Homo sapiens, UniProt P35354); test: Cyclooxygenase (COX-2) enzyme inhibition assay, COX (human) Inhibitor Screening Assay Kit; type: biochemical; conditions: compound at 10 μM; in vitro, human COX-2 isoenzyme; ELISA incubation 18 hours; read-out: % Inhibition( COX2) Mean ± SEM
T2 construct: purchased
T2 sequence (P35354 18-604): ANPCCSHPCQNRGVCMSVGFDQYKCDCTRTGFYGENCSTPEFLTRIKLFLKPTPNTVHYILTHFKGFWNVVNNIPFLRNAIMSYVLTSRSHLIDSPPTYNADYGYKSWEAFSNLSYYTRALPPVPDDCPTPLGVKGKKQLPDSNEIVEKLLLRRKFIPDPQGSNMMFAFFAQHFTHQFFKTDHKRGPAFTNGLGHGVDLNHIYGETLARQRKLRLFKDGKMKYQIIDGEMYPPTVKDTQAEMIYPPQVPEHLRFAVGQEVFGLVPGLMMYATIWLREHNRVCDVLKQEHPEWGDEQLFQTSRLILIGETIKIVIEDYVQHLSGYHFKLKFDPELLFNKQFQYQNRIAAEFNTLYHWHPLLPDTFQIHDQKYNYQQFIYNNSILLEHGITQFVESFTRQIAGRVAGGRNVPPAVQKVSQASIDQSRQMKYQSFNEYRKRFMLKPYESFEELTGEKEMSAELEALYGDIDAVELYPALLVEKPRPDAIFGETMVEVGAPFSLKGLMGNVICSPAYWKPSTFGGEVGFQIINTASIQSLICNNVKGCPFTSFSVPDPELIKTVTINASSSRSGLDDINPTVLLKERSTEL
Experimental: as §1, §2

Structure (SMILES) | inhibition at 10 µM (human COX-1) [%] | inhibition at 10 µM (human COX-2) [%]
CN1/C(=C\c2ccc(-c3ccccc3[N+](=O)[O-])o2)C(=O)N/C1=N\C(=O)Nc1cccc(F)c1 [Compound 5h, 1-(3-Fluorophenyl)-3-[(2E,5Z)-1-methyl-5-{[5-(2-nitrophenyl)furan-2-yl]methylidene}-4-oxoimidazolidin-2-ylidene]urea] | 51 ± 7 | 39 ± 2
CN1/C(=C\c2ccc(-c3ccccc3[N+](=O)[O-])o2)C(=O)N/C1=N\C(=S)Nc1cccc(Cl)c1 [Compound 6d, 1-(3-Chlorophenyl)-3-[(2E,5Z)-1-methyl-5-{[5-(2-nitrophenyl)furan-2-yl]methylidene}-4-oxoimidazolidin-2-ylidene]thiourea] | -14 ± 5.5 | 54 ± 8.5
CN1/C(=C\c2ccc([N+](=O)[O-])cc2)C(=O)N/C1=N\C(=O)Nc1ccc(Cl)cc1Cl [Compound 5m, 1-(2,4-Dichlorophenyl)-3-[(2E,5Z)-1-methyl-5-(4-nitrobenzylidene)-4-oxoimidazolidin-2-ylidene]urea] | 5 ± 23.5 | 69 ± 2.5
CN1/C(=C\c2ccc(-c3ccccc3[N+](=O)[O-])o2)C(=O)N/C1=N\C(=O)Nc1ccc(F)cc1 [Compound 5l, 1-(4-Fluorophenyl)-3-[(2E,5Z)-1-methyl-5-{[5-(2-nitrophenyl)furan-2-yl]methylidene}-4-oxoimidazolidin-2-ylidene]urea] | 31 ± 2.5 | 20 ± 5.5
CN1/C(=C\c2ccc(-c3ccccc3[N+](=O)[O-])o2)C(=O)N/C1=N\C(=O)Nc1ccccc1F [Compound 5d, 1-(2-Fluorophenyl)-3-[(2E,5Z)-1-methyl-5-{[5-(2-nitrophenyl)furan-2-yl]methylidene}-4-oxoimidazolidin-2-ylidene]urea] | 57 ± 0.15 | 97 ± 0.5
CN1/C(=C\c2ccc(Br)o2)C(=O)N/C1=N\C(=O)Nc1ccccc1F [Compound 5c, 1-{(2E,5Z)-5-[(5-Bromofuran-2-yl)methylidene]-1-methyl-4-oxoimidazolidin-2-ylidene}-3-(2-fluorophenyl)urea] | 17 ± 6.5 | 78 ± 15.5
CN1/C(=C\c2ccc(Br)o2)C(=O)N/C1=N\C(=O)Nc1ccc(F)cc1 [Compound 5k, 1-{(2E,5Z)-5-[(5-Bromofuran-2-yl)methylidene]-1-methyl-4-oxoimidazolidin-2-ylidene}-3-(4-fluorophenyl)urea] | 26 ± 6.5 | 89 ± 3
